Test results published in PMC4841536, “Characterization of the Anti-HCV Activities of the New Cyclophilin Inhibitor STG-175” (PLoS ONE, 2016).
Several values for one entry are separate records, joined by “and”; a condition that tells them apart may be missing. Equal entries are not always repeated. Where two headings read alike, the source gives them in different places.

Assays:
[1] = tested on: HIV-1 in mixed PBMCs, NTCP-Huh7 and Huh7.5.1 cells; assay: Dual/triple co-infection in cell co-cultures, HIV-1 readout; format: cell-based
[2] = alamarBlue cytotoxicity (CC50), GT1a replicon cell line; conditions: human
Experimental: The anti-HCV activity of STG-175 was conducted using a panel of luciferase reporter replicon cell lines including GT1a, GT1b, GT2a, GT3a and GT4a as we described previously. The GT1a subgenomic renilla luciferase reporter replicon H77 RLucP (7) was supplied by Dr. Delaney. The GT1b subgenomic firefly luciferase reporter replicon pFK-I389/NS3-3’ [29] was supplied by Dr. Bartenschlager. The GT1B subgenomic NS3, NS5A and NS5B mutants were created via homologous recombination using the In-Fusion HD Cloning kit (Clontech) as we described previously. The GT2a genomic luciferase reporter replicon Luc-Neo-JFH-1 was generated as previously. The plasmid pFK-Luc-JFH1 was supplied from Drs. […] The CellTiter-Fluor™ Cell Viability Assay is a non-lytic fluorescence assay, which measures the number of live cells. […] Luciferase activity was determined using the Luciferase Assay System (Promega) in a Berthold luminometer. […] Viable cells continuously convert resazurin to resorufin, increasing the overall fluorescence and color of the media surrounding cells.
Fig 2 Anti-HCV activities of STG-175 among GTs. […] Luciferase activity was determined using the Luciferase Assay System in a Berthold luminometer. […] Data are expressed as mean of relative light units and calculated EC50s are presented. […]

[3] = tested on: D320E/Y321N NS5A Con1 GT1b replicon; assay: microbe, parasite or virus in culture; format: cell-based, hepatitis C virus; conditions: for EC50: Hepatitis C virus, GT1B
Excerpt: The GT1b subgenomic firefly luciferase reporter replicon pFK-I389/NS3–3 was provided by R. Bartenschlager. The GT1B subgenomic NS3, NS5A and NS5B mutants were created via homologous recombination using the In-Fusion HD Cloning kit (Clontech) as we described previously. […] The in vitro transcription of wild-type and mutant Con1 RNA was accomplished using the T7 MEGAscript kit (Ambion) by following the manufacturer’s instructions. In vitro-transcribed RNAs were introduced into Huh7.5.1 cells by electroporation. Trypsinized cells were washed twice and resuspended in phosphate-buffered saline (PBS) (calcium-free and magnesium-free) at 1x 10^7 cells per ml. Ten micrograms of RNA for each mutant was mixed with 0.4 mL of cells in a 4-mm cuvette, and a Bio-Rad Gene Pulser system was used to deliver a single pulse at 0.27 kV, 100 ohms, and 960 μF. Cells were then plated in 12-well dishes. RNA transfection efficiency and HCV subgenomic replication were assessed by reverse transcription-quantitative PCR (RT-qPCR) and presented as genome equivalents (GE) per microgram of total RNA as described previously. We measured by RT-qPCR the replication of wild-type, STG-175-, NS5Ai-, NS3i- and NS5Bi-resistant mutants in the presence of increasing concentrations of SGT-175, daclatasvir, telaprevir, boceprevir and sofosbuvir over a period of 8 days.
D320E and D320E/Y321N NS5A substitutions were introduced into wild-type Con1 GT1 replicon as we described previously. Con1-NS5A-D320E, and Con1-NS5A-D320E/Y321N were generated using the following forward and reverse phosphorylated (p) primer sets, respectively: (p)[…] and (p)[…], and (p)[…] and (p)[…]. PCR products were circularized with Quick T4 DNA ligase (NEB) for 5 min and transformed into NEB 10-beta competent cells. The NS5A gene was sequenced to confirm the introduced substitutions.
Fig 3 Replicon clearance, replication rebound and resistance analyses. […] Then drugs were removed to allow viral replication rebound to occur. At each passage, samples of cells were collected, RNA extracted and analyzed by RT-PCR for HCV RNA levels. B. Emergence of resistance: Con1 replicon Huh-7 cells were passaged 22 times in the absence or presence of STG-175 or selected DAAs. At each passage, sample of cells were collected, RNA extracted and analyzed by RT-PCR for HCV RNA levels. C. […] Data are expressed as number of HCV RNA copies per cell. […] Data are expressed as mean of relative light units and calculated EC50s are presented. […] E. Degree of resistance of D320E and Y321N Con1 variants: Left panel. Wild-type (WT), D320E and D320/Y321N NS5A Con1 RNA were electroporated into Huh7.5.1 cells and replication monitored over 8 days by quantifying the levels of intracellular HCV RNA. Right panel. Same as just above except that increasing concentrations of STG-175 were added at the time of the electroporation. […] STG-175 is taken as the substance from the printed x-axis title 'STG-175 in Log nM'.
To determine whether the D320E and Y321N substitutions truly render HCV resistant to STG-175, they were introduced into wild-type Con1 replicon as we described previously. Introduction of the substitutions was verified by sequencing.

[4] = tested on: HCV in mixed PBMCs, NTCP-Huh7 and Huh7.5.1 cells; assay: Dual/triple co-infection in cell co-cultures, HCV readout; format: cell-based, hepatitis C virus
[5] = STG-175 added together with virus
[6] = added 3 days post-infection and then every 3 days

CC=CCC(C)C(O)C1C(=O)NC(CC)C(=O)N(C)C(CSCCCCO)C(=O)N(C)C(CC(C)(C)O)C(=O)NC(C(C)C)C(=O)N(C)C(CC(C)C)C(=O)NC(C)C(=O)NC(C)C(=O)N(C)C(CC(C)C)C(=O)N(C)C(CC(C)C)C(=O)N(C)C(C(C)C)C(=O)N1C (centres unmarked) [STG-175]
HIV-1 infection in co-infection [1, 5]: totally blocked
established HIV-1 infection in co-infection [1, 6]: almost totally aborted
CC50 at 72 h [2]: > 10000 nM
EC50 ([3]; Huh-7.5.1, 144 h, read-out: EC50, D320E/Y321N replicon): 75 nM
EC50 ([3]; Huh-7.5.1, 192 h, read-out: EC50, D320E/Y321N replicon): 102 nM
EC50 ([3]; Huh-7.5.1, 192 h, read-out: EC50 D320E/Y321N NS5A): 77.9 nM
fold more resistant than wild-type replicon, D320E/Y321N ([3]; day 6): 2.1 fold
fold more resistant than wild-type replicon, D320E/Y321N ([3]; day 8): 2.9 fold
fold resistance conferred by NS5A D320E and Y321N substitutions (summary) ([3]; variants emerged under STG-175 pressure): ~ 2 fold and 2-3 fold
HCV infection in co-infection [4, 5]: totally blocked
pre-established HCV infection in co-infection [4, 6]: totally eradicated
